Laboratory results taken from US9682033B2, “Methods of treating postherpetic neuralgia with a topical formulation of a spiro-oxindole compound” (Teva Pharmaceuticals International GmbH, priority 2015, dated 2017).
Entries after “also recorded” stand apart in the source; their conditions may differ.

Experiments:
[1] = tested on: human hepatocytes; experiment: In vitro metabolic stability in hepatocytes (human); assay type: in vitro ADME; conditions: ^14C-spiro-oxindole compound
Text: (§1) A total of 8 metabolites were identified in samples (in vitro and in vivo) from rats, dogs, and humans. All metabolites found in humans were also found in the Good Laboratory Practice (GLP) toxicology species, the rat. Following oral administration of spiro-oxindole compound to humans, spiro-oxindole compound and 3 of its metabolites (M1, M5, and M6) were measurable. A similar metabolic profile was observed following topical administration to humans, albeit at much lower plasma concentrations, except metabolite M1 was not detected following human topical administration.

[2] = tested on: dog hepatocytes; experiment: In vitro metabolic stability in hepatocytes (dog); assay type: in vitro ADME; conditions: ^14C-spiro-oxindole compound
Text: as §1

[3] = target: CYP450 2D6 (Homo sapiens, UniProt P10635); experiment: Reaction phenotyping with recombinant human CYP450 enzymes: CYP2D6; assay type: in vitro ADME; conditions: recombinant human CYP450 2D6
[4] = tested on: several CYP450 enzymes including CYP3A4; experiment: In vitro CYP450 inhibition (human liver microsomes); assay type: in vitro ADME
Text: However, the compound is also highly bound to constituents in human plasma, so distribution into hepatocytes may be hindered, reducing the inhibition potential. In vitro data using human cryopreserved hepatocytes have also shown that the spiro-oxindole compound metabolite (M3) is an inhibitor of CYP3A4 and CYP2C19. Therefore, certain medications that undergo major metabolism by CYP3A4 and CYP2C19 are excluded as concomitant medications during this study.

[5] = tested on: CCI model of neuropathic pain; experiment: Chronic constriction injury (CCI) model of neuropathic pain; conditions: rat, in vivo

Sequence of CYP450 2D6 (P10635 whole entry): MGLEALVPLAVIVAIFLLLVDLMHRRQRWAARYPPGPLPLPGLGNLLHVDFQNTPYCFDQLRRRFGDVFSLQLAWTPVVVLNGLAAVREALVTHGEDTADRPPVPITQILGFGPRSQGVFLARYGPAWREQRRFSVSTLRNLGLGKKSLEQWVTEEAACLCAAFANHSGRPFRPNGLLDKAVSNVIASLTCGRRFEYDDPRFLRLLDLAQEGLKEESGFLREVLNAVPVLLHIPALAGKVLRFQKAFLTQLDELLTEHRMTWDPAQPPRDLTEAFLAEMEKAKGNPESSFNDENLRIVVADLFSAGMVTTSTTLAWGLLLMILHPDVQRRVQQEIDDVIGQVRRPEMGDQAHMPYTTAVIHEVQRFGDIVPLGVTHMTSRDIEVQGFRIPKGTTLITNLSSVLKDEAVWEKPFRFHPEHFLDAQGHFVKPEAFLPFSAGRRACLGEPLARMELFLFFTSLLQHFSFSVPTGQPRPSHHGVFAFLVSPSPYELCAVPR

O=C1N(Cc2ccc(C(F)(F)F)o2)c2ccccc2[C@]12COc1cc3c(cc12)OCO3 [spiro-oxindole compound, (S)-1′-{[5-(trifluoromethyl)furan-2-yl]methyl}spiro[furo[2,3-f][1,3]benzodioxole-7,3′-indol]-2′(1′H)-one]
in vitro metabolic stability in hepatocytes [1]: 80%
in vitro metabolic stability in hepatocytes [2]: 61%
contribution to spiro-oxindole compound metabolism [3]: likely to play a less extensive role
inhibition of CYP450 enzymes [4]: may inhibit several CYP450 enzymes including CYP3A4; also recorded: inhibitor of several CYP450 enzymes
efficacy compared with gabapentin [5]: comparable efficacy to gabapentin
